Laboratory results as given in patent US20150250864A1, “ANTI-CANCER VACCINES” (Board of Regents, The University of Texas System, priority 2012, published 2015).

Tested on: T cells in PBMCs
Test: IFN-γ release by ELISA from PBMC stimulated with peptides or protein
Type: cell-based, human
Conditions: stimulated PBMC, FIG. 21A
Excerpt: FIG. 17. T cell stimulation by HERV-K peptides. Peptides (p73-76 and p18-135) or HERV-K SU fusion proteins were used to stimulate PBMC and evaluated in vitro for their ability to stimulate T cells in PBMCs from healthy subjects (ND1007083; left) and/or cancer patients (BC 243; right), based on interferon-γ(IFN-γ) release by ELISA. KLH peptide and GST protein were used as controls. Other negative controls included media only, DMSO, and PBS.
FIG. 18. T cell stimulation by HERV-K peptides. Peptides (p73-76: left; and p18-135: middle) or HERV-K SU fusion proteins (right) were used to stimulate PBMC and evaluated in vitro for their ability to stimulate T cells in PBMCs from healthy subjects and/or cancer patients (BC 243; middle), based on interferon-γ (IFN-γ) release by ELISA. OD values of interferon-γ (IFN-γ) release were compared between normal donors (ND447549, ND1001366, and ND1007083) and cancer patients (OC222, OC 210, OC212, and BC243). OC is ovarian cancer and BC is breast cancer
FIGS. 21A-C. T Cell Stimulation. 9 mer Peptides (HERVK-3, HERVK-4, HERVK-11, and HERVK-18; see Table 1), p73-76 and p18-135 (Table 1 178 and 179), or HERV-K SU fusion proteins were used to stimulate PBMC and evaluated in vitro for their ability to stimulate T cells in PBMCs from healthy subjects and/or cancer patients, based on IFN-γ and Granzyme B release by ELISA. (FIG. 21A) OD values of IFN-γ release were compared in a normal donor (ND291812). (FIG. 21B) OD values of IFN-γ release were compared between a normal donor (ND291817) and an ovarian cancer patient (OC153). (FIG. 21C) OD values of Granzyme B release were compared between a normal donor (ND291817) and an ovarian cancer patient (OC153). Each dot represents an individual clone. Negative controls measured release of effector molecules from cancer cells after treatment with supernatants obtained from PBMCs without stimulation with HERV-K peptides or protein; positive controls were stimulated with PMA/ONO.
Cancer patients were enrolled to evaluate HERV-K as a tumor associated antigen target. Patients provided written informed consent as part of an approved protocol (LAB04-0083) at MD Anderson Cancer Center prior to commencing the studies. Normal healthy donor control blood samples were obtained from Gulf Coast Regional Blood Center, Houston Tex. 40 mL of peripheral blood was obtained from each patient, and peripheral blood mononuclear cells (PBMCs) were isolated by density gradient centrifugation using Histopaque-1077 (Sigma-Aldrich; USA). HLA-A*02 expression in PBMCs obtained from cancer patients and healthy subjects was determined by flow cytometry with PE Mouse anti-human HLA-A2 mAb BB7.2 (BD Pharmingen; San Diego, Calif., USA). Mouse IgG2b was used as an isotype control. PBMCs (5×10^5 cells/well) from either healthy subjects or cancer patients were incubated with Peptide #18-135 ([…]; SEQ ID NO: 178), Peptide #73-76 ([…]; SEQ ID NO: 179) or KLH as control peptide) or proteins (HERV-K env SU protein or GST protein as control) at concentrations of 40 μg/mL in 96-well U-bottom microplates (BD; Franklin Lakes, N.J., USA) in 100 μL of T-cell medium (TCM), consisting of RPMI 1640 (Mediatech; Manassas, Va., USA), 10% human AB serum (Valley Biomedical, Winchester, USA), […] 2-mercaptoethanol, 100 IU/mL interleukin-2 (IL-2), and 0.1 mM MEM nonessential amino acid solution (Invitrogen; Grand Island, N.Y., USA). Half of the TCM was removed and replaced with fresh TCM containing peptides (20 μg/mL) on day 7. After 14 days of culture, the supernatants from cell culture media (PBMC pulsed with peptides or proteins) were harvested and tested for their ability to produce IFN-gamma or IL-2, and granzyme B release was also determined by enzyme-linked immunosorbent assay (ELISA) assay. In order to detect the secreted cytokine in this assay, high-binding plates were coated with 5 μg/ml anti-IFN-γ (Mabtech, Stockholm, Sweden) diluted in PBS buffer at 4° C. overnight. […]

With IINLILILV [HERVK-18] the “IFN-γ release (OD values)” value was “Higher IFN-γ release”.

YMLVVGNIV [HERVK-3] was tested, and the “IFN-γ release (OD values)” value was “Higher IFN-γ release”.
